Species: Rattus norvegicus
Experiment: Open TG-GATES - Regimen: Single
Type: toxicity, organism-based, Sprague-Dawley
Set-up: regimen Single, gender Male, age 6 weeks
Settings: in vivo, po, route gavage; for gamma-GTP / ALP / ALT / AST / BUN / CRE / Ca / Cl / DBIL / GLC / IP / K / LDH / Na / PL / RALB / TBIL / TC / TG / TP: tissue Plasma; for APTT / Bas / Eos / Fbg / Hb / Ht / Lym / MCH / MCHC / MCV / Mono / Neu / PT / Plat / RBC / Ret: tissue Blood; for KIDNEY_L / KIDNEY_R / KIDNEY_TOTAL: tissue Kidney; for LIVER: tissue Liver
[1] = 100 mg/kg, 24 h, dose level Low

COc1ccc2[nH]c([S+]([O-])Cc3ncc(C)c(OC)c3C)nc2c1 (centres undefined) [OMEPRAZOLE]
gamma-GTP (0 mg/kg, 24 h, dose level Control): 1.4 IU/L
TERMINAL_BW (100 mg/kg, 3 h, dose level Low): 221.4 g
APTT (100 mg/kg, 3 h, dose level Low): 18.4 s
Bas (100 mg/kg, 3 h, dose level Low): 0%
Eos (100 mg/kg, 3 h, dose level Low): 1.2%
Fbg (100 mg/kg, 3 h, dose level Low): 209.8 mg/dL
Hb (100 mg/kg, 3 h, dose level Low): 12.8 g/dL
Ht (100 mg/kg, 3 h, dose level Low): 37.6%
Lym (100 mg/kg, 3 h, dose level Low): 77.2%
MCH (100 mg/kg, 3 h, dose level Low): 21.2 pg
MCHC (100 mg/kg, 3 h, dose level Low): 34.1%
MCV (100 mg/kg, 3 h, dose level Low): 62.2 fL
Mono (100 mg/kg, 3 h, dose level Low): 3.4%
Neu (100 mg/kg, 3 h, dose level Low): 18%
PT (100 mg/kg, 3 h, dose level Low): 12.6 s
Plat (100 mg/kg, 3 h, dose level Low): 122.2 x10_4/uL
RBC (100 mg/kg, 3 h, dose level Low): 603.6 x10_4/ul
Ret (100 mg/kg, 3 h, dose level Low): 6.9%
KIDNEY_L (100 mg/kg, 3 h, dose level Low): 1 g
KIDNEY_R (100 mg/kg, 3 h, dose level Low): 1 g
KIDNEY_TOTAL (100 mg/kg, 3 h, dose level Low): 2 g
LIVER (100 mg/kg, 3 h, dose level Low): 10.2 g
ALP (100 mg/kg, 3 h, dose level Low): 983 IU/L
ALT (100 mg/kg, 3 h, dose level Low): 33.8 IU/L
AST (100 mg/kg, 3 h, dose level Low): 73.6 IU/L
BUN (100 mg/kg, 3 h, dose level Low): 11.6 mg/dL
CRE (100 mg/kg, 3 h, dose level Low): 0.4 mg/dL
Ca (100 mg/kg, 3 h, dose level Low): 10.6 mg/dL
Cl (100 mg/kg, 3 h, dose level Low): 100.6 meq/L
DBIL (100 mg/kg, 3 h, dose level Low): 0.078 mg/dL
GLC (100 mg/kg, 3 h, dose level Low): 201.4 mg/dL
IP (100 mg/kg, 3 h, dose level Low): 9.1 mg/dL
K (100 mg/kg, 3 h, dose level Low): 4 meq/L
LDH (100 mg/kg, 3 h, dose level Low): 180.6 IU/L
Na (100 mg/kg, 3 h, dose level Low): 140.2 meq/L
PL (100 mg/kg, 3 h, dose level Low): 144.8 mg/dL
RALB (100 mg/kg, 3 h, dose level Low): 3.3 g/dL
TBIL (100 mg/kg, 3 h, dose level Low): 0.1 mg/dL
TC (100 mg/kg, 3 h, dose level Low): 74.2 mg/dL
TG (100 mg/kg, 3 h, dose level Low): 86.6 mg/dL
TP (100 mg/kg, 3 h, dose level Low): 5.4 g/dL
gamma-GTP (100 mg/kg, 3 h, dose level Low): 0.8 IU/L
TERMINAL_BW (100 mg/kg, 6 h, dose level Low): 217.8 g
APTT (100 mg/kg, 6 h, dose level Low): 19.2 s
Bas (100 mg/kg, 6 h, dose level Low): 0%
Eos (100 mg/kg, 6 h, dose level Low): 1%
Fbg (100 mg/kg, 6 h, dose level Low): 217 mg/dL
Hb (100 mg/kg, 6 h, dose level Low): 13.2 g/dL
Ht (100 mg/kg, 6 h, dose level Low): 38.6%
Lym (100 mg/kg, 6 h, dose level Low): 76%
MCH (100 mg/kg, 6 h, dose level Low): 21.1 pg
MCHC (100 mg/kg, 6 h, dose level Low): 34.2%
MCV (100 mg/kg, 6 h, dose level Low): 61.7 fL
Mono (100 mg/kg, 6 h, dose level Low): 4%
Neu (100 mg/kg, 6 h, dose level Low): 18.8%
PT (100 mg/kg, 6 h, dose level Low): 12.9 s
Plat (100 mg/kg, 6 h, dose level Low): 114.2 x10_4/uL
RBC (100 mg/kg, 6 h, dose level Low): 626.4 x10_4/ul
Ret (100 mg/kg, 6 h, dose level Low): 6.5%
KIDNEY_L (100 mg/kg, 6 h, dose level Low): 1 g
KIDNEY_R (100 mg/kg, 6 h, dose level Low): 1 g
KIDNEY_TOTAL (100 mg/kg, 6 h, dose level Low): 2 g
LIVER (100 mg/kg, 6 h, dose level Low): 10.1 g
ALP (100 mg/kg, 6 h, dose level Low): 849 IU/L
ALT (100 mg/kg, 6 h, dose level Low): 32 IU/L
AST (100 mg/kg, 6 h, dose level Low): 65 IU/L
BUN (100 mg/kg, 6 h, dose level Low): 9.4 mg/dL
CRE (100 mg/kg, 6 h, dose level Low): 0.4 mg/dL
Ca (100 mg/kg, 6 h, dose level Low): 10.6 mg/dL
Cl (100 mg/kg, 6 h, dose level Low): 102.4 meq/L
DBIL (100 mg/kg, 6 h, dose level Low): 0.074 mg/dL
GLC (100 mg/kg, 6 h, dose level Low): 197.8 mg/dL
IP (100 mg/kg, 6 h, dose level Low): 9.4 mg/dL
K (100 mg/kg, 6 h, dose level Low): 4 meq/L
LDH (100 mg/kg, 6 h, dose level Low): 219.6 IU/L
Na (100 mg/kg, 6 h, dose level Low): 141 meq/L
PL (100 mg/kg, 6 h, dose level Low): 159.6 mg/dL
RALB (100 mg/kg, 6 h, dose level Low): 3.3 g/dL
TBIL (100 mg/kg, 6 h, dose level Low): 0.1 mg/dL
TC (100 mg/kg, 6 h, dose level Low): 86.2 mg/dL
TG (100 mg/kg, 6 h, dose level Low): 83.4 mg/dL
TP (100 mg/kg, 6 h, dose level Low): 5.4 g/dL
gamma-GTP (100 mg/kg, 6 h, dose level Low): 1 IU/L
TERMINAL_BW (100 mg/kg, 9 h, dose level Low): 217.8 g
APTT (100 mg/kg, 9 h, dose level Low): 20.7 s
Bas (100 mg/kg, 9 h, dose level Low): 0%
Eos (100 mg/kg, 9 h, dose level Low): 0.8%
Fbg (100 mg/kg, 9 h, dose level Low): 217.6 mg/dL
Hb (100 mg/kg, 9 h, dose level Low): 12.9 g/dL
Ht (100 mg/kg, 9 h, dose level Low): 37.5%
Lym (100 mg/kg, 9 h, dose level Low): 76.8%
MCH (100 mg/kg, 9 h, dose level Low): 20.9 pg
MCHC (100 mg/kg, 9 h, dose level Low): 34.5%
MCV (100 mg/kg, 9 h, dose level Low): 60.6 fL
Mono (100 mg/kg, 9 h, dose level Low): 3.4%
Neu (100 mg/kg, 9 h, dose level Low): 18.4%
PT (100 mg/kg, 9 h, dose level Low): 12.8 s
Plat (100 mg/kg, 9 h, dose level Low): 130.5 x10_4/uL
RBC (100 mg/kg, 9 h, dose level Low): 620.2 x10_4/ul
Ret (100 mg/kg, 9 h, dose level Low): 6.8%
KIDNEY_L (100 mg/kg, 9 h, dose level Low): 1 g
KIDNEY_R (100 mg/kg, 9 h, dose level Low): 1 g
KIDNEY_TOTAL (100 mg/kg, 9 h, dose level Low): 2.1 g
LIVER (100 mg/kg, 9 h, dose level Low): 9.7 g
ALP (100 mg/kg, 9 h, dose level Low): 826.2 IU/L
ALT (100 mg/kg, 9 h, dose level Low): 28.8 IU/L
AST (100 mg/kg, 9 h, dose level Low): 56.8 IU/L
BUN (100 mg/kg, 9 h, dose level Low): 9 mg/dL
CRE (100 mg/kg, 9 h, dose level Low): 0.3 mg/dL
Ca (100 mg/kg, 9 h, dose level Low): 10.3 mg/dL
Cl (100 mg/kg, 9 h, dose level Low): 101 meq/L
DBIL (100 mg/kg, 9 h, dose level Low): 0.066 mg/dL
GLC (100 mg/kg, 9 h, dose level Low): 197.4 mg/dL
IP (100 mg/kg, 9 h, dose level Low): 10.1 mg/dL
K (100 mg/kg, 9 h, dose level Low): 4 meq/L
LDH (100 mg/kg, 9 h, dose level Low): 171.6 IU/L
Na (100 mg/kg, 9 h, dose level Low): 140 meq/L
PL (100 mg/kg, 9 h, dose level Low): 135.8 mg/dL
RALB (100 mg/kg, 9 h, dose level Low): 3.3 g/dL
TBIL (100 mg/kg, 9 h, dose level Low): 0.1 mg/dL
TC (100 mg/kg, 9 h, dose level Low): 71.2 mg/dL
TG (100 mg/kg, 9 h, dose level Low): 68.6 mg/dL
TP (100 mg/kg, 9 h, dose level Low): 5.4 g/dL
gamma-GTP (100 mg/kg, 9 h, dose level Low): 1 IU/L
TERMINAL_BW [1]: 234.1 g
APTT [1]: 19.3 s
Bas [1]: 0%
Eos [1]: 1%
Fbg [1]: 216.2 mg/dL
Hb [1]: 12.8 g/dL
Ht [1]: 37.6%
Lym [1]: 84.4%
MCH [1]: 21.2 pg
MCHC [1]: 34%
MCV [1]: 62.2 fL
Mono [1]: 2.4%
Neu [1]: 12%
PT [1]: 12.6 s
Plat [1]: 130.1 x10_4/uL
RBC [1]: 604.8 x10_4/ul
Ret [1]: 6.9%
KIDNEY_L [1]: 1 g
KIDNEY_R [1]: 1.1 g
KIDNEY_TOTAL [1]: 2.1 g
LIVER [1]: 11.2 g
ALP [1]: 851.2 IU/L
ALT [1]: 28.4 IU/L
AST [1]: 57.8 IU/L
BUN [1]: 15.8 mg/dL
CRE [1]: 0.4 mg/dL
Ca [1]: 10.6 mg/dL
Cl [1]: 101 meq/L
DBIL [1]: 0.092 mg/dL
GLC [1]: 209.4 mg/dL
IP [1]: 9.3 mg/dL
K [1]: 4.4 meq/L
LDH [1]: 195.8 IU/L
Na [1]: 140.2 meq/L
PL [1]: 145.4 mg/dL
RALB [1]: 3.2 g/dL
TBIL [1]: 0.1 mg/dL
TC [1]: 77.8 mg/dL
TG [1]: 89.8 mg/dL
TP [1]: 5.3 g/dL

Source: ChEMBL document CHEMBL3885861, “Open TG-GATES”
